In one series the target is T1, recombinant human MAO-A (Homo sapiens, UniProt P21397).
T1 construct: purchased Sigma-Aldrich; host or cells: insect cells (microsomes)
T1 sequence (P21397 1-527): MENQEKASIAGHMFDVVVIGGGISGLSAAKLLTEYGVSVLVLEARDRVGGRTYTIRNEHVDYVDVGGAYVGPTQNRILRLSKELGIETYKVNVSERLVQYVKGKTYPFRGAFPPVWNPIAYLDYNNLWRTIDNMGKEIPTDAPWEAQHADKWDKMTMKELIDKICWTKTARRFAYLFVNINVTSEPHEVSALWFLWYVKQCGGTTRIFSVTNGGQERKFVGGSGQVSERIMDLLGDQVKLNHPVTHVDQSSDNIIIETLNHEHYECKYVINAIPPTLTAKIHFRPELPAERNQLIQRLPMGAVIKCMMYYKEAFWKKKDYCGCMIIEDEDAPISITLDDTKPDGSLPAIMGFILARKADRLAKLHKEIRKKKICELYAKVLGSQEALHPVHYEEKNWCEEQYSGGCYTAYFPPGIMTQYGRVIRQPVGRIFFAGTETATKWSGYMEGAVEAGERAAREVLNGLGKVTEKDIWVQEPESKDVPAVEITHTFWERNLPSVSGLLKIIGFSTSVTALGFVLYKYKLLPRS
As to the kind of experiment: MAO-A inhibition, IC50 determination with kynuramine as substrate (fluorescence of 4-hydroxyquinoline). Format: biochemical. The note with it: 50 µM kynuramine, mean ± SD of triplicate, NI = no inhibition observed at 100 µM. How it is done: (§1) The MAO inhibition properties of the 2,1-benzisoxazole derivatives were investigated using the commercially available recombinant human MAO-A and MAO-B enzymes with kynuramine serving as substrate. MAO oxidizes kynuramine to yield 4-hydroxyquinoline, which was measured by fluorescence spectrophotometry.
(§2) For the MAO inhibition studies, a Varian Cary Eclipse fluorescence spectrophotometer was employed. Microsomes from insect cells containing recombinant human MAO-A and MAO-B (5 mg protein/mL) and kynuramine dihydrobromide were obtained from Sigma-Aldrich.
(§3) IC50 values for the inhibition of MAO were measured as described previously. Microsomes from insect cells containing recombinant human MAO-A and MAO-B (5 mg protein/mL) served as enzyme sources (Sigma-Aldrich) while kynuramine was used as non-specific MAO substrate. The enzyme reactions (200 µL reactions prepared in 96-well microtiter plates) contained phosphate buffer (100 mM, pH 7.4), 50 µM kynuramine and the test inhibitors at concentrations of 0.003–100 µM. […] The reactions were initiated with addition of MAO-A (0.0075 mg protein/mL) or MAO-B (0.015 mg protein/mL) and after 20 min of incubation at 37 °C, the reactions were terminated by the addition of 80 µL NaOH (2 N). The concentration of 4-hydroxyquinoline, the product of kynuramine oxidation by MAO, was measured by fluorescence spectrophotometry (λex = 310 nm; λem = 400 nm). IC50 values were estimated from sigmoidal plots of enzyme catalytic rate versus the inhibitor concentration (log[I]) which were constructed with the Prism software package (GraphPad). IC50 values were estimated in triplicate determinations from these plots and are expressed as mean ± standard deviation (SD).

In another series the target is T2, recombinant human MAO-B (Homo sapiens, UniProt P27338).
T2 construct: purchased Sigma-Aldrich; host or cells: insect cells (microsomes)
T2 sequence (P27338 1-520): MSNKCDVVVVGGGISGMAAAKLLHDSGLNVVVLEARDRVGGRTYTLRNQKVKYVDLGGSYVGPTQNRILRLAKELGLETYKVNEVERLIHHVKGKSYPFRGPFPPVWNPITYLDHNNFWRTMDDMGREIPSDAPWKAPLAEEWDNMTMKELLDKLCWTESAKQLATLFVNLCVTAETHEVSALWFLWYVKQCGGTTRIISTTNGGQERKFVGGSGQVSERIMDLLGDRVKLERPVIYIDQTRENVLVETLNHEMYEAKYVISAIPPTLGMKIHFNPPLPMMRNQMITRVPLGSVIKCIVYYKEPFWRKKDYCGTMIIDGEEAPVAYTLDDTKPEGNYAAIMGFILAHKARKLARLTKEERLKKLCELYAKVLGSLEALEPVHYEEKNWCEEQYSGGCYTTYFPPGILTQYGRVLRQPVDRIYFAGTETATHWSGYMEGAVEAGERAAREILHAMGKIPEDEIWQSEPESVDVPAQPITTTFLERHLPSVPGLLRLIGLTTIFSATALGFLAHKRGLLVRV
As to the kind of experiment: MAO-B inhibition, IC50 determination with kynuramine as substrate (fluorescence of 4-hydroxyquinoline). Format: biochemical. The conditions noted are these: for IC50: recombinant human MAO-B, 50 µM kynuramine, mean ± SD of triplicate, NI = no inhibition observed at 100 µM; for SI (selectivity index): SI = IC50(MAO-A)/IC50(MAO-B). As to the method: as §1, §2
as §3, with “The” for “The reactions were initiated with addition of MAO-A (0.0075 mg protein/mL) or MAO-B (0.015 mg protein/mL) and after 20 min of incubation at 37 °C, the reactions were terminated by the addition of 80 µL NaOH (2 N). The”

SMILES strings stand for the structures. “And” between values parts separate entries of the source, which are not always exact repeats. Equal values may be shown once. A value given as a limit tells only on which side of the number the result lay.

The term IC50 denotes the point on the concentration scale where inhibition reaches its midpoint. As to `Clc1cc2noc(-c3ccccc3)c2cc1Cl` [Compound 3k, 6-Dichloro-3-phenylbenzo[c]isoxazole], the results for the IC50 at recombinant human MAO-A and on recombinant human MAO-B were above 100 µM and 5.56 ± 0.73 µM, respectively.
A word on the melting point: it is the temperature of the solid-liquid transition. `Clc1ccc(-c2onc3ccc(Cl)cc23)cc1` [Compound 3n, 5-Chloro-3-(4-chlorophenyl)benzo[c]isoxazole] returned a melting point of 229 to 232 °C. In addition, at recombinant human MAO-A, the concentration for half-maximal inhibition (IC50) worked out at 81.3 ± 28.7 µM. Also, on recombinant human MAO-B, the “SI (selectivity index)” value is 39 and the 50% inhibitory concentration (IC50) came to 2.07 ± 0.381 µM.
`Ic1ccc2noc(-c3ccccc3)c2c1` [Compound 3h, 5-Iodo-3-phenylbenzo[c]isoxazole] had a melting point of 112 to 115 °C. Also, the half-inhibitory concentration (IC50) at recombinant human MAO-A worked out at 17.7 ± 0.424 µM. Moreover, at recombinant human MAO-B, the “SI (selectivity index)” value amounted to 1.1; the IC50 is < 16.3 µM and 16.3 µM.
`CC1(c2ccc3noc(-c4cccc(Cl)c4)c3c2)OCCO1` [Compound 3f, 3-(3-Chlorophenyl)-5-(2-methyl-1,3-dioxolan-2-yl)benzo[c]isoxazole]: the melting point is 175 to 177 °C. For the same compound, at recombinant human MAO-A, the IC50 is above 100 µM. Moreover, the IC50 on recombinant human MAO-B worked out at 25.1 ± 2.41 µM.
Consider `Cc1nc(-c2cc3noc(-c4ccccc4)c3cc2Cl)no1` [Compound 3e, 5-Chloro-6-(5-methyl-1,2,4-oxadiazol-3-yl)-3-phenylbenzo[c]isoxazole], for which the melting point is 171 to 172 °C. Besides, on recombinant human MAO-A, the IC50 was 8.95 ± 0.581 µM. Moreover, at recombinant human MAO-B, the “SI (selectivity index)” value worked out at 2.5 and the IC50 turned out to be 3.55 ± 0.037 µM.
The matching figures for `Cc1ccc(-c2onc3ccc(Cl)cc23)cc1` [Compound 3c, 5-Chloro-3-(p-tolyl)benzo[c]isoxazole]: 136 to 138 °C, 8.76 ± 0.058 µM, 3.3 and 2.63 ± 0.178 µM.
The corresponding values for `Brc1ccc2noc(-c3ccccc3)c2c1` [Compound 3g, 5-Bromo-3-phenylbenzo[c]isoxazole] are 116 to 118 °C, 19.5 ± 3.2 µM, 3.4 and 5.79 ± 0.013 µM.
In the case of `Clc1ccc(-c2onc3ccc(I)cc23)cc1` [Compound 3b, 3-(4-Chlorophenyl)-5-iodobenzo[c]isoxazole], the melting point lay within 185 to 187 °C. For the same compound, on recombinant human MAO-A, the IC50 was 77.7 ± 5.97 µM. Also, at recombinant human MAO-B, the “SI (selectivity index)” value is 12; the IC50 is < 6.59 µM and 6.59 µM.
The compound `C(#Cc1ccc2noc(-c3ccccc3)c2c1)c1ccccc1` [Compound 3d, 3-Phenyl-5-(phenylethynyl)benzo[c]isoxazole] returned a melting point of 143 to 144 °C. The IC50 on recombinant human MAO-A came out at 71.6 ± 3.08 µM. For the same compound, at recombinant human MAO-B, the “SI (selectivity index)” value is 9.0 and the IC50 amounted to 7.92 ± 0.684 µM.
The corresponding values for `Clc1ccc2noc(-c3ccc(Br)cc3)c2c1` [Compound 3m, 3-(4-Bromophenyl)-5-chlorobenzo[c]isoxazole] are 230 to 232 °C, 83.2 ± 33.3 µM, 71 and 1.18 ± 0.022 µM.
In turn, `N#Cc1ccc(-c2onc3ccc(Cl)cc23)cc1` [Compound 7b, 4-(5-Chlorobenzo[c]isoxazol-3-yl)benzonitrile] returned a melting point of 236 to 237 °C. Further, the IC50 at recombinant human MAO-A stood at 61 ± 9.19 µM. Besides, at recombinant human MAO-B, the “SI (selectivity index)” value stood at 622 and the IC50 was 0.098 ± 0.0036 µM. Further, the “fold more potent MAO-B inhibition than homologues” value on recombinant human MAO-B (versus p-tolyl (3c), phenyl (3j), p-Br-phenyl (3m), p-Cl-phenyl (3n) and p-OCH3-phenyl (3o) homologues) is reported as “at least 12 fold”.
For `c1ccc(-c2onc3ccc(Oc4ccc5noc(-c6ccccc6)c5c4)cc23)cc1` [Compound 5, 5,5'-Oxybis(3-phenylbenzo[c]isoxazole)], the melting point was in the range of 190 to 192 °C. Also, the 50% inhibitory concentration (IC50) at recombinant human MAO-A came out at 3.29 ± 0.254 µM. Also, on recombinant human MAO-B, the “SI (selectivity index)” value is reported as 0.33 and the half-maximal inhibitory concentration (IC50) is 10 ± 0.949 µM.
`COc1ccc2c(c1)[nH]c1c(C)nccc12` [Harmine, reference compound]: on recombinant human MAO-B, the IC50 is above 100 µM.
Consider `Clc1ccc2noc(-c3ccccc3)c2c1` [Compound 3j, 5-Chloro-3-phenylbenzo[c]isoxazole], for which the IC50 amounted to 10.6 ± 0.049 µM at recombinant human MAO-A and 4.43 ± 0.12 µM on recombinant human MAO-B.

The values above are taken from article PMC11269473, “Monoamine oxidase inhibition properties of 2,1-benzisoxazole derivatives” (Molecular Diversity, 2023).
